Results from patent US20200341000A1, “METHOD OF SCREENING COMPOUNDS FOR TREATING CNS DISORDERS” (SAGE THERAPEUTICS, INC., priority 2017, published 2020).
“Also recorded” adds a separate entry of the source.

Experiments:
[1] = system: GABAA receptor β3 subunit S408/9 phosphorylation; assay: Immunoblot of β3 S408/9 phosphorylation in hippocampal slices; format: cell-based, mice; details: 100 nM
Protocol: Hippocampi were dissected out of acute slices from 8 to 12 week old C57/B16 mice and lysed with phosphate buffer including: 20 mM Tris-HCl, 150 mM NaCl, 5 mM EDTA, 10 mM NaF, 2 mM Na3VO4, 10 mM pyrophosphate, 0.1% SDS and 1% Triton after drug treatment. The β3 subunit was isolated using immunoprecipitation with β3 antibodies, after correction for protein content and the specific activity of labeling. Results were attained by SDS/PAGE followed by autoradiography (Abramian et al., 2010). For biotinylation experiments hippocampi were dissected out of acute slices from 8 to 12 week old C57/B16 mice and incubated in artificial cerebrospinal fluid (ACSF) described above at 30° C. for 1 h for recovery before experimentation. Slices were then placed on ice and incubated for 30 min with 1 mg/mL NHS-SS-biotin (Pierce). Excess biotin was removed by a 50 mM glycine quenching buffer, followed by washing of slices three times in ice-cold ACSF. The tissue was snap frozen on dry ice for 5 min, thawed at 4° C. and lysed. The lysates were solubilized with 2% Triton at 4° C. on a rotating wheel for 1 h. The insoluble material was removed by centrifugation, and 350-500 μg of protein lysate were incubated with NeutrAvidin beads (Pierce) for 18-24 h at 4° C. Bound material was eluted with sample buffer and subjected to SDS/PAGE and then immunoblotted with the indicated antibodies. Blots were then quantified using the CCD-based ChemiDoc XRS ? system. Antibodies against the β3 subunit and the phospho-β3 antibody were generated and verified by the laboratory of S.J.M. (Vien et al., 2015).
To produce antibodies specific for phosphorylated S443, rabbits were injected with a synthetic peptide corresponding to residues […] of the murine α4 subunit in which the serine residue corresponding to S443 was chemically phosphorylated; […]. Hippocampal slices were treated with vehicle (Con), or SGE-516 for 20 min. Slices were immunoblotted with pS408/9, β3, or actin antibodies. The ratio of pS408/9/β3 immunoreactivity was then normalized to control slices (100%=the line).
Hippocampal slices were treated with 100 nM ALLO or P4 (progesterone), and S408/9 phosphorylation was then determined as detailed above, n=4 slices (FIG. 18D). Hippocampal slices were treated with 100 nM ORG (FIG. 18E). S408/9 phosphorylation was examined using immunoblotting.

[2] = system: GABA-evoked currents in GT1-7 cells; assay: Patch-clamp of GABA-induced currents in GT1-7 cells, compound in the pipette electrolyte; format: cell-based; details: 100 nM in electrolyte, GABA EC20, 20 min time course
Protocol: Patch-clamp recordings were made from GT1-7 cells. The magnitude of the GABA-induced currents (IGABA) at EC20 agonists concentration were then measured, in the presence of control electrolyte or that supplemented with 100 nM ALLO, or 100 nM ORG OD 02-0 over a time course of 20 min.

[3] = system: tonic current in dentate gyms granule cells (DGGCs); assay: Sustained (metabotropic) enhancement of tonic current in DGGCs after 15 min exposure and washout; format: cell-based, mice; details: protocol as in FIG. 3; n=6-8 cells
Protocol: Brain slices were prepared from 3- to 5-week-old male C57 mice. Mice were anesthetized with isoflurane, decapitated, and brains were rapidly removed and submerged in ice-cold cutting solution containing (mM): 126 NaCl, 2.5 KCl, 0.5 CaCl2, 2 MgCl2, 26 NaHCO3, 1.25 NaH2PO4, 10 glucose, 1.5 sodium pyruvate, and 3 kynurenic acid. Coronal 310 μm thick slices were cut with the vibratome VT1000S (Leica Microsystems, St Louis, Mo., USA). The slices were then transferred into incubation chamber filled with prewarmed (31-32° C.) oxygenated artificial cerebro-spinal fluid (ACSF) of the following composition (in mM): 126 NaCl, 2.5 KCl, 2 CaCl2, 2 MgCl2, 26 NaHCO3, 1.25 NaH2PO4, 10 glucose, 1.5 sodium pyruvate, 1 glutamine, 3 kynurenic acid and 0.005 GABA bubbled with 95% O2-5% CO2. Slices were allowed to recover at 32° C. for at least 1 hr before recording. Exogenous GABA was added in an attempt to standardize ambient GABA in the slice and provide an agonist source for newly inserted extrasynaptic GABAARs.
After recovery, a single slice was transferred to a submerged, dual perfusion recording chamber (Warner Instruments, Hamden, Conn., USA) on the stage of an upright microscope (Nikon FN-1) with a 40× water immersion objective equipped with DIC/IR optics. Slices were maintained at 32° C. and gravity-superfused with ACSF solution throughout experimentation and perfused at rate of 2 ml/min with oxygenated (O2/CO2 95/5%) ACSF.
Whole-cell currents were recorded from the dentate gyms granule cells (DGGCs) in 310-μm-thick coronal hippocampal slices. Patch pipettes (5-7MΩ) were pulled from borosilicate glass (World Precision Instruments) and filled with intracellular solution of the composition (in mM) as follows: 140 CsCl, 1 MgCl2, 0.1 EGTA, 10 HEPES, 2 Mg-ATP, 4 NaCl and 0.3 Na-GTP (pH=7.2 with CsOH). A 5 min period for stabilization after obtaining the whole-cell recording conformation (holding potential of −60 mV) was allowed before currents were recorded using an Axopatch 200B amplifier (Molecular Devices), low-pass filtered at 2 kHz, digitized at 20 kHz (Digidata 1440A; Molecular Devices), and stored for offline analysis.
For tonic current measurements, an all-points histogram was plotted for a 10 s period before and during 100 μM picrotoxin application, once the response reached a plateau level. Recordings with unstable baselines were discarded. Fitting the histogram with a Gaussian distribution gave the mean baseline current amplitude and the difference between the amplitudes before and during picrotoxin was considered to be the tonic current. The negative section of the all-points histogram which corresponds to the inward IPSCs was not fitted with a Gaussian distribution (Kretschmannova et al., 2013; Nusser and Mody, 2002). Series resistance and whole-cell capacitance were continually monitored and compensated throughout the course of the experiment. Recordings were eliminated from data analysis if series resistance increased by >20%. Spontaneous inhibitory post-synaptic currents (sIPSCs) were analyzed using the mini-analysis software (version 5.6.4; Synaptosoft, Decatur, Ga.). Minimum threshold detection was set to 3 times the value of baseline noise signal. To assess sIPSC kinetics, the recording trace was visually inspected and only events with a stable baseline, sharp rising phase, and single peak were used to negate artifacts due to event summation. Only recordings with a minimum of 200 events fitting these criteria were analyzed. sIPSCs amplitude, and frequency from each experimental condition was pooled and expressed as mean±SEM. To measure sIPSC decay, 100 consecutive events were averaged and the decay was fitted to a double exponential and the weighted decay constant (tw) was determined. Statistical analysis was performed by using Student t-test (paired and unpaired where appropriate), where p<0.05 is considered significant.

[4] = biological target: T1, GABAARs composed of α4β3 subunits (Homo sapiens, UniProt P28472+P48169); assay: Acute modulation of GABA-induced currents in HEK-293 cells; format: cell-based; set-up: dose or concentration left out as unconfirmed; details: rapidly applied with GABA
T1 construct: expressed in transfected cells; host or cells: HEK-293
T1 sequence (P48169 36-554): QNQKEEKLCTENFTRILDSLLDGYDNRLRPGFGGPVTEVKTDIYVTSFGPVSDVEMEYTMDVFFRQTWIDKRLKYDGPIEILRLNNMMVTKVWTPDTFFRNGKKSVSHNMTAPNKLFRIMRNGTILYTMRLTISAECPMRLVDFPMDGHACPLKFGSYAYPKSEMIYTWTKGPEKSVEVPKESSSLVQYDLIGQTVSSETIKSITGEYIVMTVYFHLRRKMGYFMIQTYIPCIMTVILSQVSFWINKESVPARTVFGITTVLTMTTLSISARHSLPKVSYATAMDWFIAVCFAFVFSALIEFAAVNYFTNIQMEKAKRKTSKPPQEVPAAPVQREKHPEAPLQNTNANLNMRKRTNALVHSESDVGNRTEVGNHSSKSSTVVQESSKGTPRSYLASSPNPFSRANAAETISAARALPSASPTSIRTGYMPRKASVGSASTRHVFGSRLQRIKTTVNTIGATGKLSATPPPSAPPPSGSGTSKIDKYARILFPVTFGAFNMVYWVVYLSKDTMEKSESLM
T1 sequence (P28472 26-473): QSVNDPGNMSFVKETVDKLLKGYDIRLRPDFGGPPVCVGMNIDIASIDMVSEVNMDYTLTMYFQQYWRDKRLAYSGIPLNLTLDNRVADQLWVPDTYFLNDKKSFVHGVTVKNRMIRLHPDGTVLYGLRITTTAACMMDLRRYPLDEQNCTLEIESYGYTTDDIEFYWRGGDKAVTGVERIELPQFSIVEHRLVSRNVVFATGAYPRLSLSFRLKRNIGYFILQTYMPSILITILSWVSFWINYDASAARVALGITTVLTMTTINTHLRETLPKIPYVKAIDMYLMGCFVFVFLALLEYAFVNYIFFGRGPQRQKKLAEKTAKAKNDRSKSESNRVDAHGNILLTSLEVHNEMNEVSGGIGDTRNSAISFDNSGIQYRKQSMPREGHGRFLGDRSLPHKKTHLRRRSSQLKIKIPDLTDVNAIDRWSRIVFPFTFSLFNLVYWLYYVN

C=C[C@]12CCC(=O)C=C1CC[C@H]1[C@@H]3CC[C@H](C(C)=O)[C@@]3(C)CC[C@@H]12 [ORG OD 02-0] was tested, and the “S408/9 phosphorylation in hippocampal slices” value [1] was “regulated”, the “GABA-evoked currents (IGABA) over time” value [2] was “sustained increases” and the “amplitude and density of GABAergic tonic current at varying doses” value [3] was “dosage-dependent effect; also recorded: dosage dependent effect”. The “acute modulation of GABA-evoked current (IGABA)” value [4] was “did not acutely modulate; also recorded: does not acutely modulate”.
